The record followed here is patent US20230093861A1, “RAPAMYCIN ANALOGS AS MTOR INHIBITORS” (Revolution Medicines, Inc., priority 2017, published 2023).

Like-named read-outs stand apart in the source and are kept apart here. Some results are limits rather than exact numbers.

Experiment [1] relates to P-4E-BP1 (T37/46). The experiment can be described thus: Cell based AlphaLISA assay, inhibition of P-4E-BP1 (T37/46) (mTORC1 substrate phosphorylation) in MDA-MB-468 cells. The following applies: Homo sapiens, AlphaLISA, two to four hours at 37° C., read-out: pIC50 for Inhibition of mTORC1 and mTORC2 Substrate Phosphorylation, P-4E-BP1-(T37/46) (converted). In a few lines:
(§1)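 AlphaLISA SureFire Ultra read-out of P-4E-BP1 (T37/46), P-P70S6K (T389) and P-Akt (S473) in MDA-MB-468 cells after compound treatment; cells lysed in kit buffer. Alpha signal read in duplicate; IC50 from normalized concentration-response regression with control-based normalization.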
On the technique in general: Bead proximity is the source of the signal in Alpha formats.

Experiment [2] has as its system P-P70S6K (T389). Put plainly: Cell based AlphaLISA assay, inhibition of P-P70S6K (T389) (mTORC1 substrate phosphorylation) in MDA-MB-468 cells. The conditions noted are these: Homo sapiens, 4 h, AlphaLISA, two to four hours at 37° C., read-out: pIC50 for Inhibition of mTORC1 and mTORC2 Substrate Phosphorylation, P-P70S6K-(T389) (converted). In a few lines:
as §1

Experiment [3] relates to P-Akt (S473). Put plainly: Cell based AlphaLISA assay, inhibition of P-Akt (S473) (mTORC2 substrate phosphorylation) in MDA-MB-468 cells. The conditions noted are these: Homo sapiens, AlphaLISA, two to four hours at 37° C., read-out: pIC50 for Inhibition of mTORC1 and mTORC2 Substrate Phosphorylation, p-AKT 1/2/3 -(S473) (converted). In a few lines:
as §1

Regarding `CO[C@@H]1C[C@H](C[C@@H](C)[C@@H]2CC(=O)[C@H](C)/C=C(\C)[C@@H](O)[C@@H](OC)C(=O)[C@H](C)C[C@H](C)/C=C/C=C/C=C(\C)[C@@H](c3ccco3)C[C@@H]3CC[C@@H](C)[C@@](O)(O3)C(=O)C(=O)N3CCCC[C@H]3C(=O)O2)CC[C@H]1OCCCCc1cn(CCOCCOCCOCCOCCOCCOCCOCCOCCC(=O)NCCCCn2nc(-c3cc4cc(O)ccc4[nH]3)c3c(N)ncnc32)nn1` [Example 76], the IC50 was less than 3.16 nM in experiment [1] (MDA-MB-468, 4 h); less than 1 nM in experiment [2]; 3.16 to 31.6 nM in experiment [3] (MDA-MB-468, 4 h).

For `CO[C@H]1C[C@@H]2CC[C@@H](C)[C@@](O)(O2)C(=O)C(=O)N2CCCC[C@H]2C(=O)O[C@H]([C@H](C)C[C@@H]2CC[C@@H](OCc3cccc(-c4cnc(N5CCN(Cc6cn(CCOCCOCCOCCOCCC(=O)NCCCCn7nc(-c8ccc9oc(N)nc9c8)c8c(N)ncnc87)nn6)C(CO)C5)nc4)c3)[C@H](OC)C2)CC(=O)[C@H](C)/C=C(\C)[C@@H](O)[C@@H](OC)C(=O)[C@H](C)C[C@H](C)/C=C/C=C/C=C/1C` (stereo partly drawn) [Example 24], the IC50 in experiment [1] (MDA-MB-468, 4 h) was less than 3.16 nM; in experiment [2], less than 1 nM; in experiment [3] (MDA-MB-468, 4 h), 3.16 to 31.6 nM.

With `CO[C@H]1C[C@@H]2CC[C@@H](C)[C@@](O)(O2)C(=O)C(=O)N2CCCC[C@H]2C(=O)O[C@H]([C@H](C)C[C@@H]2CC[C@H](n3cc(COC(=O)NCCOCCOCCOCCC(=O)NCCOCCOCCC(=O)NCCCCn4nc(-c5ccc6oc(N)nc6c5)c5c(N)ncnc54)nn3)[C@H](OC)C2)CC(=O)[C@H](C)/C=C(\C)[C@@H](O)[C@@H](OC)C(=O)[C@H](C)C[C@H](C)/C=C/C=C/C=C/1C` [Example 120], the IC50 in experiment [1] (MDA-MB-468, 4 h) was 3.16 to 31.6 nM; in experiment [2], 1 to 10 nM; in experiment [3] (MDA-MB-468, 4 h), 31.6 to 1000 nM.

In the case of `CO[C@H]1C[C@@H]2CC[C@@H](C)[C@@](O)(O2)C(=O)C(=O)N2CCCC[C@H]2C(=O)O[C@H]([C@H](C)C[C@@H]2CC[C@@H](O)[C@H](OC)C2)C[C@@H](O)[C@H](C)/C=C(\C)[C@@H](O)[C@@H](OC)C(=NOCc2cn(CCOCCOCCOCCOCCOCCOCCOCCOCCC(=O)NCCCCn3nc(-c4cnc5[nH]ccc5c4)c4c(N)ncnc43)nn2)[C@H](C)C[C@H](C)/C=C/C=C/C=C/1C` [Example 79], the IC50 was 3.16 to 31.6 nM in experiment [1] (MDA-MB-468, 4 h); less than 1 nM in experiment [2]; 31.6 to 1000 nM in experiment [3] (MDA-MB-468, 4 h).

For `CO[C@H]1C[C@@H]2CC[C@@H](C)[C@@](O)(O2)C(=O)C(=O)N2CCCC[C@H]2C(=O)O[C@H]([C@H](C)C[C@@H]2CC[C@@H](O)[C@H](OC)C2)C[C@@H](OC)[C@H](C)/C=C(\C)[C@@H](O)[C@@H](OC)C(=NOCc2cn(CCOCCOCCOCCOCCC(=O)NCCCCn3nc(-c4ccc5oc(N)nc5c4)c4c(N)ncnc43)nn2)[C@H](C)C[C@H](C)/C=C/C=C/C=C/1C` [Example 16], the IC50 in experiment [1] (MDA-MB-468, 4 h) is greater than 1000 nM; in experiment [2] it was greater than 1000 nM; in experiment [3] (MDA-MB-468, 4 h) it was greater than 1000 nM.

In the case of `CO[C@H]1C[C@@H]2CC[C@@H](C)[C@@](O)(O2)C(=O)C(=O)N2CCCC[C@H]2C(=O)O[C@H]([C@H](C)C[C@@H]2CC[C@H](n3cc(-c4cnc(N5CCN(c6ncc(C(=O)NCCOCCOCCOCCOCCOCCC(=O)NCCCCn7nc(-c8ccc9oc(N)nc9c8)c8c(N)ncnc87)cn6)CC5)nc4)nn3)[C@H](OC)C2)CC(=O)[C@H](C)/C=C(\C)[C@@H](O)[C@@H](OC)C(=O)[C@H](C)C[C@H](C)/C=C/C=C/C=C/1C` [Example 118], the IC50 in experiment [1] (MDA-MB-468, 4 h) was less than 3.16 nM; in experiment [2] it was less than 1 nM; in experiment [3] (MDA-MB-468, 4 h), 3.16 to 31.6 nM.

Regarding `CO[C@H]1C[C@@H]2CC[C@@H](C)[C@@](O)(O2)C(=O)C(=O)N2CCCC[C@H]2C(=O)O[C@H]([C@H](C)C[C@@H]2CC[C@H](n3cc(-c4cccc(C(=O)NCCOCCOCCOCCC(=O)NCCOCCOCCOCCC(=O)NCCCCn5nc(-c6cc7cc(O)ccc7[nH]6)c6c(N)ncnc65)c4)nn3)[C@H](OC)C2)CC(=O)[C@H](C)/C=C(\C)[C@@H](O)[C@@H](OC)C(=O)[C@H](C)C[C@H](C)/C=C/C=C/C=C/1C` [Example 138], the IC50 in experiment [1] (MDA-MB-468, 4 h) was greater than 1000 nM; in experiment [2] it was 1 to 10 nM; in experiment [3] (MDA-MB-468, 4 h), 31.6 to 1000 nM.

In the case of `CO[C@H]1C[C@@H]2CC[C@@H](C)[C@@](O)(O2)C(=O)C(=O)N2CCCC[C@H]2C(=O)O[C@H]([C@H](C)C[C@@H]2CC[C@H](n3cc(-c4cnc(N5CCN(c6ncc(C(=O)NCCOCCC(=O)NCCCCn7nc(-c8cc9cc(O)ccc9[nH]8)c8c(N)ncnc87)cn6)CC5)nc4)nn3)[C@H](OC)C2)CC(=O)[C@H](C)/C=C(\C)[C@@H](O)[C@@H](OC)C(=O)[C@H](C)C[C@H](C)/C=C/C=C/C=C/1C` [Example 110], the IC50 in experiment [1] (MDA-MB-468, 4 h) is 31.6 to 1000 nM; in experiment [2], less than 1 nM; in experiment [3] (MDA-MB-468, 4 h), greater than 1000 nM.

For `COC(=O)N[C@H]1C[C@@H]2CC[C@@H](C)[C@@](O)(O2)C(=O)C(=O)N2CCCC[C@H]2C(=O)O[C@H]([C@H](C)C[C@@H]2CC[C@@H](OCCCCc3cn(CCOCCOCCOCCOCCOCCOCCC(=O)N4CCN(c5ccc(-n6c(=O)n(C)c7cnc8ccc(-c9ccc(OC)nc9)cc8c76)cc5C(F)(F)F)CC4)nn3)[C@H](OC)C2)CC(=O)[C@H](C)/C=C(\C)[C@@H](O)[C@@H](OC)C(=O)[C@H](C)C[C@H](C)/C=C/C=C/C=C/1C` [Example 73], the IC50 in experiment [1] (MDA-MB-468, 4 h) was less than 3.16 nM; in experiment [2], less than 1 nM; in experiment [3] (MDA-MB-468, 4 h), less than 3.16 nM.

Consider `COc1cccc2cc(-c3nc([C@H]4CC[C@H](C(=O)NCCOCCOCCOCCOCCOCCOCCOCCOCCn5cc(CCCCO[C@@H]6CC[C@@H](C[C@@H](C)[C@@H]7CC(=O)[C@H](C)/C=C(\C)[C@@H](O)[C@@H](OC)C(=O)[C@H](C)C[C@H](C)/C=C/C=C/C=C(\C)[C@@H](OC)C[C@@H]8CC[C@@H](C)[C@@](O)(O8)C(=O)C(=O)N8CCCC[C@H]8C(=O)O7)C[C@H]6OC)nn5)CC4)n4ncnc(N)c34)[nH]c12` [Example 108], for which the IC50 in experiment [1] (MDA-MB-468, 4 h) was less than 3.16 nM; in experiment [2], less than 1 nM; in experiment [3] (MDA-MB-468, 4 h), 3.16 to 31.6 nM.

As to `CO[C@H]1C[C@@H]2CC[C@@H](C)[C@@](O)(O2)C(=O)C(=O)N2CCCC[C@H]2C(=O)O[C@H]([C@H](C)C[C@@H]2CC[C@@H](OCCCCc3cn(CCOCCOCCOCCOCCOCCOCCOCCOCCC(=O)N4CCc5cc(Cn6nc(-c7ccc8oc(N)nc8c7)c7c(N)ncnc76)ccc5C4)nn3)[C@H](OC)C2)CC(=O)[C@H](C)/C=C(\C)[C@@H](O)[C@@H](OC)C(=O)[C@H](C)C[C@H](C)/C=C/C=C/C=C/1C` [Example 88], the IC50 in experiment [1] (4 h) was less than 3.16 nM; in experiment [2], less than 1 nM; in experiment [3] (4 h), 3.16 to 31.6 nM.

For the compound `CO[C@H]1C[C@@H]2CC[C@@H](C)[C@@](O)(O2)C(=O)C(=O)N2CCCC[C@H]2C(=O)O[C@H]([C@H](C)C[C@@H]2CC[C@H](n3nncc3-c3cccc(-c4cnc(N5CCN(S(=O)(=O)CCc6cn(CCOCCOCCOCCC(=O)NCCCCn7nc(-c8ccc9oc(N)nc9c8)c8c(N)ncnc87)nn6)CC5)nc4)c3)[C@H](OC)C2)CC(=O)[C@H](C)/C=C(\C)[C@@H](O)[C@@H](OC)C(=O)[C@H](C)C[C@H](C)/C=C/C=C/C=C/1C` [Example 35], the IC50 is less than 3.16 nM in experiment [1] (MDA-MB-468, 4 h); less than 1 nM in experiment [2]; 3.16 to 31.6 nM in experiment [3] (MDA-MB-468, 4 h).

Turning to `CO[C@H]1C[C@@H]2CC[C@@H](C)[C@@](O)(O2)C(=O)C(=O)N2CCCC[C@H]2C(=O)O[C@H]([C@H](C)C[C@@H]2CC[C@@H](OCCCCc3cn(CCOCCOCCOCCOCCOCCOCCOCCOCCC(=O)N(C)CCCCn4nc(-c5ccc6oc(N)nc6c5)c5c(N)ncnc54)nn3)[C@H](OC)C2)CC(=O)[C@H](C)/C=C(\C)[C@@H](O)[C@@H](OC)C(=O)[C@H](C)C[C@H](C)/C=C/C=C/C=C/1C` [Example 83], the IC50 in experiment [1] (MDA-MB-468, 4 h) is less than 3.16 nM; in experiment [2], less than 1 nM; in experiment [3] (MDA-MB-468, 4 h), less than 3.16 nM.

With `CO[C@H]1C[C@@H]2CC[C@@H](C)[C@@](O)(O2)C(=O)C(=O)N2CCCC[C@H]2C(=O)O[C@H]([C@H](C)C[C@@H]2CC[C@H](n3cc(CCCC(=O)NCCOCCOCCOCCC(=O)NCCOCCOCCOCCC(=O)NCCCCn4nc(-c5ccc6oc(N)nc6c5)c5c(N)ncnc54)nn3)[C@H](OC)C2)C[C@@H](OC)[C@H](C)/C=C(\C)[C@@H](O)[C@@H](OC)C(=O)[C@H](C)C[C@H](C)/C=C/C=C/C=C/1C` [Example 164], the IC50 is 3.16 to 31.6 nM in experiment [1] (MDA-MB-468, 4 h); less than 1 nM in experiment [2]; 31.6 to 1000 nM in experiment [3] (MDA-MB-468, 4 h).

As for `CO[C@H]1C[C@@H]2CC[C@@H](C)[C@@](O)(O2)C(=O)C(=O)N2CCCC[C@H]2C(=O)O[C@H]([C@H](C)C[C@@H]2CC[C@H](n3nncc3-c3cccc(-c4cnc(N5CCN(Cc6cn(CCOCCOCCOCCOCCOCCC(=O)NCCCCn7nc(-c8ccc9oc(N)nc9c8)c8c(N)ncnc87)nn6)CC5)nc4)c3)[C@H](OC)C2)CC(=O)[C@H](C)/C=C(\C)[C@@H](O)[C@@H](OC)C(=O)[C@H](C)C[C@H](C)/C=C/C=C/C=C/1C` [Example 29], the IC50 in experiment [1] (MDA-MB-468, 4 h) is less than 3.16 nM; in experiment [2] it was less than 1 nM; in experiment [3] (MDA-MB-468, 4 h), 3.16 to 31.6 nM.
